In ChEMBL document CHEMBL1143211, “Inhibitors of proteases and amide hydrolases that employ an alpha-ketoheterocycle as a key enabling functionality” (Bioorg Med Chem, 2008):
Where a SMILES comes first, the peptide text is derived from it. [ ]: non-standard residue; d: D form. The star is where a group is joined. Nle = CCCC[C@H](N)C(=O)O; Bz = O=C(c1ccccc1)*

Tests used:
Granzyme B = Granzyme B (Homo sapiens, UniProt P10144); assay: Inhibition of granzyme B
[1] = Selectivity for rat FAAH over triacylglycerol hydrolase
[2] = Selectivity for rat FAAH over lipoprotein lipase
[3] = Selectivity for rat FAAH over monoacylglycerol lipase
[4] = Selectivity for rat FAAH over carboxylesterase 1 lipase
[5] = Inhibition of dengue virus NS3 protease
Homo sapiens [6] = organism: Homo sapiens; assay: Selectivity for human alpha-thrombin over human trypsin
[7] = Inhibition of human beta-tryptase
Coagulation factor X = Coagulation factor X (Homo sapiens, UniProt P00742); assay: Inhibition of human factor 10a
Chain of Coagulation factor X (P00742 41-179 limits assumed): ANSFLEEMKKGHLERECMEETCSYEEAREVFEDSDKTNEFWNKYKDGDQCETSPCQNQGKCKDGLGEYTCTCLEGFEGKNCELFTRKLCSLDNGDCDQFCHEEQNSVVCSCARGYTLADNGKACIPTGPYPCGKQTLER
Chain of Coagulation factor X (P00742 235-488 limits assumed): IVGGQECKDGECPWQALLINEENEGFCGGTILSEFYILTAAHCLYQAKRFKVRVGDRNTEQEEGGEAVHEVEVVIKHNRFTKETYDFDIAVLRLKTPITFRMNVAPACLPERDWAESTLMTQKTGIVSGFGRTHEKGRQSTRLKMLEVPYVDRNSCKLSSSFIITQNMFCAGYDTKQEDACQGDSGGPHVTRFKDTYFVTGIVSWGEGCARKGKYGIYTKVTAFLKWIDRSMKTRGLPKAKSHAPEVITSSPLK

Plasma kallikrein = Plasma kallikrein (Homo sapiens, UniProt P03952); assay: Inhibition of kallikrein
Chain of Plasma kallikrein (P03952 20-390 limits assumed): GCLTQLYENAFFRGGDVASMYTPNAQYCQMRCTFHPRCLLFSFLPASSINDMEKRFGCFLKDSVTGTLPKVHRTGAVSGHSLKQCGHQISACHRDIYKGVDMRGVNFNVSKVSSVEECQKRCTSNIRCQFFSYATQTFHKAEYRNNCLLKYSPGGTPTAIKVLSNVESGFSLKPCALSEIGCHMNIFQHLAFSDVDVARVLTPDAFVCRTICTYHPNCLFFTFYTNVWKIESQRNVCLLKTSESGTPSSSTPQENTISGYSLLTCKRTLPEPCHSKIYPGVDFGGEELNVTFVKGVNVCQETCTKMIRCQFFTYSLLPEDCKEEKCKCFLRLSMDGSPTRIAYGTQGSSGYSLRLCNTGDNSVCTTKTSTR
Chain of Plasma kallikrein (P03952 391-638 limits assumed): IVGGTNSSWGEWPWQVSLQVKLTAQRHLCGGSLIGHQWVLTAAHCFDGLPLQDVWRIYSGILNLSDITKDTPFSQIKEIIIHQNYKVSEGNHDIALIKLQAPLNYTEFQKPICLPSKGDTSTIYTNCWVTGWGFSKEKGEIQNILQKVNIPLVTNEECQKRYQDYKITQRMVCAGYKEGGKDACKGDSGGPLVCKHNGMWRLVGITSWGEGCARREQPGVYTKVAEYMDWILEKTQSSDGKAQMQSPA

Prothrombin = Prothrombin (Homo sapiens, UniProt P00734); assay: Inhibition of human alpha-thrombin
Trypsin = Trypsin (Homo sapiens, UniProt P07477+P07478+P35030); assay: Inhibition of human trypsin; type: protein assay
[8] = Inhibition of calpain 1 at 10 uM
Hamster = assay: Efficacy in po dosed hamster acute lung injury model; type: functional; settings: Cricetinae
Chymase = Chymase (Homo sapiens, UniProt P23946)
Chain of Chymase (P23946 whole entry): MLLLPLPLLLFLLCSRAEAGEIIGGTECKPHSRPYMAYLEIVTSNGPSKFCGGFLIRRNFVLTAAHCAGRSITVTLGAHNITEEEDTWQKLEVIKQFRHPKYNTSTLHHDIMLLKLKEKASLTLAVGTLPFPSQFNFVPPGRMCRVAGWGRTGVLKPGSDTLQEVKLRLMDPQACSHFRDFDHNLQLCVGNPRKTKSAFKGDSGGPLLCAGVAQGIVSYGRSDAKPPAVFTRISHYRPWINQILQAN

[9] = target: T1, Fatty-acid amide hydrolase 1 (Homo sapiens, UniProt O00519); assay: Inhibition of human recombinant FAAH
T1 sequence (O00519 whole entry): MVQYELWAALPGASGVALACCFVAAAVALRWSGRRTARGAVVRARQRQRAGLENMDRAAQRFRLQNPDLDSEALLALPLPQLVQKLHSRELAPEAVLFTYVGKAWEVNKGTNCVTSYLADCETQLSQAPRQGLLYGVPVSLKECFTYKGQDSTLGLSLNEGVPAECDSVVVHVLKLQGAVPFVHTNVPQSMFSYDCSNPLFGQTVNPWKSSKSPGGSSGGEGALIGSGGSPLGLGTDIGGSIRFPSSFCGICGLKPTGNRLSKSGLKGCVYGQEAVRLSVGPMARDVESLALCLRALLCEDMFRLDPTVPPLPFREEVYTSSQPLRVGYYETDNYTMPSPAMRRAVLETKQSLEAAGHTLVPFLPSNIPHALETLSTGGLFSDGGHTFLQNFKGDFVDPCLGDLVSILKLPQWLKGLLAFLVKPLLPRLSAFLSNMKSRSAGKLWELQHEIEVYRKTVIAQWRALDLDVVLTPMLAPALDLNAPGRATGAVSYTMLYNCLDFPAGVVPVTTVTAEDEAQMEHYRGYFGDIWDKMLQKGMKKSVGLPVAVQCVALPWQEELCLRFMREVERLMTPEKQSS

[10] = target: T2, Fatty-acid amide hydrolase 1 (Rattus norvegicus, UniProt P97612)
T2 sequence (P97612 whole entry): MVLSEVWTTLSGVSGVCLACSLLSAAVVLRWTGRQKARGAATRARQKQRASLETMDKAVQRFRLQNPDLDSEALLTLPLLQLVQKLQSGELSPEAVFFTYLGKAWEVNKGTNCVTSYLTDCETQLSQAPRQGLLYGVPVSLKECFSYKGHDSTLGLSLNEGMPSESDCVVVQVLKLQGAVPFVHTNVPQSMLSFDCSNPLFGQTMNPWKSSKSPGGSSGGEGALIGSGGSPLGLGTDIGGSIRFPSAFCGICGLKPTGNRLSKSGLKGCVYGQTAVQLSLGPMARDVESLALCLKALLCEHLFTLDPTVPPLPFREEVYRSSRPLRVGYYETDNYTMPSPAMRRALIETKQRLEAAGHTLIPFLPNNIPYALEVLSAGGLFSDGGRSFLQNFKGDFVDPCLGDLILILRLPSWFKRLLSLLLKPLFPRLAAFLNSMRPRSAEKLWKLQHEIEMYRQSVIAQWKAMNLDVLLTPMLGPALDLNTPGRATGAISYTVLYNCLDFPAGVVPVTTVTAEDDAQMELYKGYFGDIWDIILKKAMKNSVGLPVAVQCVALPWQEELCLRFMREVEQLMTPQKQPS

[11] = target: T3, Trifunctional purine biosynthetic protein adenosine-3 (Homo sapiens, UniProt P22102); assay: Inhibition of human glycinamide ribonucleotide transformylase
T3 sequence (P22102 whole entry): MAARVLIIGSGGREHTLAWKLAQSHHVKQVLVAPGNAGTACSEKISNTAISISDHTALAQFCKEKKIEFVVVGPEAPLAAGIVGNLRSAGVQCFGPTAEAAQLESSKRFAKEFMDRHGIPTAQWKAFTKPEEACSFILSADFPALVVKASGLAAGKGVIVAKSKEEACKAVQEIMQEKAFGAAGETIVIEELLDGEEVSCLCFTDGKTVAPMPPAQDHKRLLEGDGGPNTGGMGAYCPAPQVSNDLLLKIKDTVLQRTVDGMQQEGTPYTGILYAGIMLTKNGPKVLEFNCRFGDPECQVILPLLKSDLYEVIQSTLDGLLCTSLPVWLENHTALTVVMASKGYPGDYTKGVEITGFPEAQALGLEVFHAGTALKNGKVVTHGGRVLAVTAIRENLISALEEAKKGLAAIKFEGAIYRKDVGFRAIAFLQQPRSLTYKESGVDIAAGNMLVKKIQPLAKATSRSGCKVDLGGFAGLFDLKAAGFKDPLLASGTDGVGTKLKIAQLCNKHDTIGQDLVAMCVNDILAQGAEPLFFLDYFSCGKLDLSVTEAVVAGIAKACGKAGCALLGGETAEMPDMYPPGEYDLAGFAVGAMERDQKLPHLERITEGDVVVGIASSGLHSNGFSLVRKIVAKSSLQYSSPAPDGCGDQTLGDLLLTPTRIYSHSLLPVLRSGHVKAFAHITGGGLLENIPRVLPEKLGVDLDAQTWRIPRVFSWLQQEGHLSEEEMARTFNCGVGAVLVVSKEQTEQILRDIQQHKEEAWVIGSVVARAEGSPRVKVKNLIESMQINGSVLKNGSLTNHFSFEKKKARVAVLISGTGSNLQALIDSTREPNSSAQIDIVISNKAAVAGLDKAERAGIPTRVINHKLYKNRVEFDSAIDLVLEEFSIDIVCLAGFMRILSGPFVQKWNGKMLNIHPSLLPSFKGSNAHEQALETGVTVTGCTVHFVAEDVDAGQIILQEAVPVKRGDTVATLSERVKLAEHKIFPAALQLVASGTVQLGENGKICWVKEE

[12] = Selectivity for human alpha-thrombin over bovine trypsin
[13] = Selectivity for human alpha-thrombin over factor 10a
[14] = Selectivity for human alpha-thrombin over plasmin
[15] = Selectivity for human alpha-thrombin over tissue plasminogen activator
[16] = Selectivity for human alpha-thrombin over uPA
Platelet = assay: Antithrombotic activity assessed as inhibition of alpha-thrombin-induced human platelet aggregation; type: functional, cell-based
[17] = Inhibition of trypsin-like activity of human 20S proteasome
[18] = Inhibition of post-glutamyl peptide hydrolase-like activity of human 20S proteasome
[19] = Inhibition of human rhinovirus 14 3C protease; set-up: species or system rhinovirus B14
rhinovirus B14 = assay: Antiviral activity against human rhinovirus 14; type: functional, organism-based; settings: Rhinovirus B
[20] = Selectivity for human beta-tryptase over kallikrein
Homo sapiens [21] = organism: Homo sapiens; assay: Selectivity for human beta-tryptase over human alpha thrombin

Chain of Granzyme B (P10144 whole entry): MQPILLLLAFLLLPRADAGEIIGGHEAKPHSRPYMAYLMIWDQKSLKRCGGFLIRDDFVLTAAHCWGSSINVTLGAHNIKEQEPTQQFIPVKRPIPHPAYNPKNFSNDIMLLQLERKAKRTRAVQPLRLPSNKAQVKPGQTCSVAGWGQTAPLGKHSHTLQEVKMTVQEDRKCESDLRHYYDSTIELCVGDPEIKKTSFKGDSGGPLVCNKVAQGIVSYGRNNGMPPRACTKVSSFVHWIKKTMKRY

CC[C@H](C)[C@H](NC(C)=O)C(=O)N[C@H]1CCc2cccc3c2N(C1=O)[C@H](C(=O)N[C@@H](CC(=O)O)C(=O)c1nc2ccccc2s1)C3
Ki (Granzyme B): 85 nM

O=C(CCCCCc1ccccc1)c1nc2ncccc2o1
Selectivity ratio [1]: 10 | Selectivity ratio [2]: > 10000 | Selectivity ratio [3]: > 10000 | Selectivity ratio [4]: > 10000

CCCC[C@H](NC(=O)c1ccccc1)C(=O)N[C@@H](CCCCN)C(=O)N[C@@H](CCCNC(=N)N)C(=O)N[C@H](CCCNC(=N)N)B(O)O
Ki [5]: 0.043 µM

C=CCOC(=O)N[C@@H](CC1CCNC1)C(=O)c1noc(Cc2ccc(C(=O)NC3Cc4ccccc4C3)cc2)n1 (some centres not stated)
Selectivity ratio (Homo sapiens [6]): > 50 | Ki [7]: 25 nM

CC[C@H](C)[C@H](NC(C)=O)C(=O)N[C@H]1CCc2cccc3c2N(C1=O)[C@H](C(=O)N[C@@H](CC(=O)O)C(=O)c1nnc(-c2ccccc2)o1)C3
Ki (Granzyme B): 7 nM

N=C(N)NCCC[C@H](NC(=O)CNC(=O)[C@@H](CCCNC(=N)N)NS(=O)(=O)CCc1ccccc1)C(=O)c1nccs1
IC50 (Coagulation factor X): 1 nM | IC50 (Plasma kallikrein): 120 nM

N=C(N)N1CCC[C@@H](C[C@H](NC(=O)CN2C(=O)CN(CCCc3ccccc3)C(=O)[C@H]2Cc2ccccc2Cl)C(=O)c2nccs2)C1
Ki (Prothrombin): 1.2 nM | IC50 (Trypsin): 9.7 µM | Ratio Ki (Homo sapiens [6]): 500

CC(C)C[C@H](NC(=O)OCc1ccccc1)C(=O)N[C@@H](CC(C)C)C(=O)N[C@@H](Cc1ccccc1)C(=O)c1nccs1
inhibition [8]: 54%

CCCC[C@H](NC(=O)c1ccccc1)C(=O)N[C@@H](CCCCN)C(=O)N[C@@H](CCCNC(=N)N)C(=O)N[C@@H](CCCNC(=N)N)C(=O)c1nccs1
Ki [5]: 43 µM

COC(=O)N[C@H](C(=O)N1CCC[C@H]1C(=O)N[C@H](C(=O)c1nn(-c2ccc(N(C)C)cc2)c(=O)o1)C(C)C)C(C)C
ED50 (Hamster): 7.5 mg/kg

CC[C@H](C)[C@H](NC(C)=O)C(=O)N[C@H]1CCc2cccc3c2N(C1=O)[C@H](C(=O)N[C@H](C=O)CC(=O)O)C3
Ki (Granzyme B): 8 nM

COC(=O)c1ccc2oc(C(=O)[C@H](Cc3ccccc3)NC(=O)Cn3c(-c4ccc(F)cc4)ncc(N)c3=O)nc2c1
Ki (Chymase): 23 nM

NCCCC[C@H](NC(=O)c1cc(F)cc(F)c1)C(=O)c1noc(Cc2ccc(C(=O)NCCc3cccc(Cl)c3)cc2)n1
Selectivity ratio (Homo sapiens [6]): 275 | Ki [7]: 1.5 nM

N#Cc1cnc(C(=O)CCc2ccc(-c3ccccc3)cc2)o1
Ki [9]: 0.26 nM | Ki [10]: 0.2 nM

N=C(N)NCCC[C@H](NC(=O)CNC(=O)[C@@H](CCCNC(=N)N)NS(=O)(=O)CCc1ccccc1)C(=O)c1nc2ccccc2s1
IC50 (Coagulation factor X): 2 nM | IC50 (Plasma kallikrein): 29 nM

CC(C)[C@H](NC(=O)Cn1c(-c2ccc(F)cc2)ncc(N)c1=O)C(=O)c1nnc(C(C)(C)c2ccccc2)o1
ED50 (Hamster): 10 mg/kg

Nc1nc(N)c(CCCC(c2ccc(C(=O)N[C@@H](CCC(=O)O)C(=O)O)cc2)C(O)c2nc3ccccc3o2)c(=O)[nH]1 (some centres not stated)
Ki [11]: 1800 nM

CN[C@H](Cc1ccccc1)C(=O)N1CCC[C@H]1C(=O)N[C@@H](CCCN=C(N)N)C(=O)c1nc2ccccc2s1
Ratio Ki [12]: 15 | Selectivity ratio [13]: 2400 | Selectivity ratio [14]: 12000 | Selectivity ratio [15]: 23000 | Selectivity ratio [16]: 23000 | IC50 (Platelet): 30 nM | Ki [7]: 6.5 nM

CCCC[C@H](NC(=O)c1ccccc1)C(=O)N[C@@H](CCCCN)C(=O)N[C@@H](CCCNC(=N)N)C(=O)N[C@@H](CCCNC(=N)N)C(=O)c1nc2ccccc2o1
Ki [5]: 83 µM

Cc1ccc(S(=O)(=O)N[C@@H](CC(=O)NCC(C)(C)C)C(=O)N[C@](C)(CO)C(=O)N[C@@H](CC(C)C)C(=O)c2nnc(-c3ccccc3)o2)cc1
Ki [17]: > 900 µM | Ki [18]: > 900 µM

CC(C)C[C@H](NC(=O)OC(C)(C)C)C(=O)N[C@@H](CC(C)C)C(=O)c1ncc[nH]1
inhibition [8]: 77%

CCCCCCCC/C=C\CCCCCCCC(=O)c1nc2ccccc2o1
Ki [9]: 73 nM

O=C(CCCc1ccccc1)c1nc2ncccc2o1
Selectivity ratio [1]: 10 | Selectivity ratio [2]: > 10000 | Selectivity ratio [3]: > 10000 | Selectivity ratio [4]: > 10000 | Ki [10]: 6.9 nM

Nc1nc(N)c(CCCC(C(=O)c2nc3ccccc3o2)c2ccc(C(=O)N[C@@H](CCC(=O)O)C(=O)O)cc2)c(=O)[nH]1 (some centres not stated)
Ki [11]: 600 nM

CCCC[C@H](NC(=O)c1ccccc1)C(=O)N[C@@H](CCCCN)C(=O)N[C@@H](CCCNC(=N)N)C(=O)N[C@H](C=O)CCCNC(=N)N (Bz-[Nle]KRR-aldehyde)
Ki [5]: 5.8 µM

CC(C)C[C@H](NC(=O)OCc1ccccc1)C(=O)N[C@@H](Cc1ccccc1)C(=O)N[C@@H](C[C@H]1CCNC1=O)C(=O)c1nccs1
Ki [19]: 700 nM | EC50 (rhinovirus B14): 7.9 µM

CC(C)C[C@H](NC(=O)OCc1ccccc1)C(=O)N[C@@H](Cc1ccccc1)C(=O)N[C@@H](C[C@H]1CCNC1=O)C(=O)c1ccccn1
Ki [19]: 170 nM | EC50 (rhinovirus B14): 4 µM

CC(=O)N1C[C@H](O)C[C@H]1C(=O)N[C@@H](CCCN=C(N)N)C(=O)c1nc2ccccc2s1
Selectivity ratio [13]: > 500 | Selectivity ratio [14]: > 500 | Selectivity ratio [15]: > 500 | Selectivity ratio [16]: 200 | Ki [7]: 10 nM | Selectivity ratio [20]: 30

CCCCCCCC/C=C\CCCCCCCC(=O)c1nc2ncccc2o1
Ki [9]: 13 nM | Selectivity ratio [1]: 30

Cc1ccc(S(=O)(=O)N[C@@H](CC(=O)NCC(C)(C)C)C(=O)N[C@@H](C)C(=O)N[C@@H](CC(C)C)C(=O)c2nnc(-c3ccc(N(C)C)cc3)o2)cc1
Ki [17]: 290 µM | Ki [18]: > 300 µM

Cc1cccc(Cc2nnc(C(=O)[C@@H](NC(=O)Cn3c(-c4ccc(F)cc4)ncc(N)c3=O)C(C)C)o2)c1
ED50 (Hamster): 13 mg/kg

Cc1cc(C(=O)N[C@H](C(=O)N[C@@H](Cc2ccc(F)cc2)C(=O)N[C@@H](C[C@@H]2CCNC2=O)C(=O)c2nc3ccccc3s2)C(C)C)no1
Ki [19]: 4.5 nM | EC50 (rhinovirus B14): 0.34 µM

CCOC(=O)N[C@@H](CCCCN)C(=O)c1noc(Cc2ccc(C(=O)NC3Cc4ccccc4C3)cc2)n1
Selectivity ratio [13]: > 1000 | Selectivity ratio (Homo sapiens [6]): > 50 | Ki [7]: 3 nM | Selectivity ratio (Homo sapiens [21]): > 1000
